“Also recorded” adds a separate entry of the source.
Assays:
C. elegans [1] = test: Ascaroside function (Table 12); type: in vivo, Caenorhabditis elegans; design: key to Attract Females/Herm. / Promote Dauer Formation / Attract Males: A very strong result of affecting nematode behavior is designated in the table as “strong.”; details: listed = has this function
Description: (§1) Various ascarosides and ascaroside blends were administered to various nematodes described below (Table 12). […] A very strong result of affecting nematode behavior is designated in the table as “strong.”

ASI sensory neurons = details: in vivo; cited from earlier work
C. elegans [2] = test: Spot attraction assay; type: in vivo
Description: The spot attraction assays were conducted according to a previously reported method (Pungaliya et al., PNAS 106:7708-13 (2009); Srinivasan et al., Nature 454:1115-18 (2008), which are hereby incorporated by reference in their entirety). For both C. elegans hermaphrodites and males, 50-60 worms were harvested daily at the fourth larval stage (L4) and stored segregatedly by sex at 20° C. overnight, to be used as young adults the following day. For the competition experiments, two conditions were used: 120 nM ascr#3 and 10 nM icas#3 (Condition 1), or 12 μM ascr#3 and 1 μM icas#3 (Condition 2) in water containing 10% ethanol. Aliquots were stored at −20° C. in 20 μL tubes. 10% ethanol in water was used as control.
Attraction assays with hbas#3 were conducted as previously reported (Srinivasan et al., Nature 454:1115-18 (2008); Pungaliya et al., Proc. Natl. Acad. Sci. U.S.A. 106:7708-13 (2009), which are hereby incorporated by reference in their entirety). For the attraction assays, 50-60 hermaphrodite worms were harvested daily at the early fourth larval stage (L4) and stored at 20° C. overnight to be used as young adults the following day. Hbas#3 was dissolved in water containing 10% ethanol. Aliquots were stored at −20° C. in 20 μL tubes. 10% ethanol in water was used as control.

C. elegans [3] = test: Quadrant chemotaxis assay; type: in vivo; details: for chemotaxis of hermaphrodites from all tested strains: 1 pM icas#3, except npr-1(ad609) for the blend
Description: Chemotaxis to both non-indole and indole ascarosides was assessed on 10 cm four-quadrant petri plates (Wicks et al., Dev. Biol. 221:295-307 (2000), which is hereby incorporated by reference in its entirety). Each quadrant was separated from adjacent ones by plastic spacers (FIG. 1B). Pairs of opposite quadrants were filled with nematode growth medium (NGM) agar containing either indole ascarosides or non-indole ascarosides at different concentrations. Animals were washed gently in a S-basal buffer, placed in the center of a four-quadrant plate with ascarosides in alternating quadrants, and scored after 15 minutes and 30 minutes. A chemotaxis index was calculated as: (the number of animals on ascaroside quadrants minus the number of animals on buffer quadrants)/(total number of animals).
Chemotaxis to hbas#3 was assessed on 10 cm four-quadrant petri plates (Wicks et al., Dev. Biol. 221:295-307 (2000), which is hereby incorporated by reference in its entirety). Each quadrant was separated from adjacent ones by plastic spacers. Pairs of opposite quadrants were filled with nematode growth medium (NGM) agar containing different concentrations of hbas#3. Animals were washed gently in an S-basal buffer and placed in the center of a four-quadrant plate with ascarosides in alternating quadrants, and scored after 15 minutes and 30 minutes. A chemotaxis index was calculated as: (the number of animals on ascaroside quadrants minus the number of animals on buffer quadrants)/(total number of animals).

AIA interneurons = test: Calcium imaging (G-CaMP); type: in vivo, C. elegans; details: 1 μM icas#3
Source text: Transgenic lines that express the genetically encoded Ca^2+ sensor in ASK (kyEx2866) and AIA (kyEx2916) (Macosko et al., Nature 458:1171-75 (2009), which is hereby incorporated by reference in its entirety) were used for calcium imaging. Young adults or adult worms were inserted into an “Olfactory chip” microfluidic device (Chronis et al., Nat. Methods 4:727-31 (2007), which is hereby incorporated by reference in its entirety). Dilutions of icas#3 were done with S-basal buffer (with no cholesterol). As stock solutions of icas#3 contained small amounts of ethanol, equivalent amounts of ethanol were added to the S-basal control flow.
Imaging was conducted using an inverted Zeiss microscope equipped with an Andor camera. Exposure time for image acquisition was 300 milliseconds. Before imaging the ASK neuron, the worm was exposed to blue light for 3 minutes as ASK responds to the blue light itself. […] Movies were analyzed using custom-made Matlab scripts. The first peak of fluorescence immediately after exposure to buffer or icas#3 was chosen for calculating the average change in fluorescence upon exposure to either buffer or icas#3. The value for this maximum was then subtracted from the mean fluorescence during the 5 seconds before the delivery of icas#3/buffer (corresponding to the region between 5 to 10 seconds in FIG. 2D).

C. elegans [4] = test: Aggregation assay; type: in vivo
Description: Aggregation behavior of worms was measured using assays reported in de Bono & Bargmann, Cell 94:679-89 (1998), which is hereby incorporated by reference in its entirety. Aggregation assays were conducted on standard NGM plates. Plates containing indole ascarosides were made by adding the indole ascaroside stock solution to the NGM media before they were poured onto the plates. These plates were dried at room temperature for 2 to 3 days. Control plates were treated similarly, except that ethanol solutions instead of icas solutions were added to the plates, corresponding to the amount of ethanol introduced via the icas solutions. Final ethanol concentrations of the plates were below 0.1% for all conditions. After drying, both control plates and plates containing indole ascarosides were seeded with 150 μl of an overnight culture of E. coli OP50 using a micropipette, and were allowed to dry for 2 days at room temperature. For “low worm density” experiments, 20 worms were placed onto the lawn and left at 20° C. for 3 hours. For “high worm density” experiments, approximately 120 worms were placed onto the bacterial lawn and left at 20° C. for 3 hours. Aggregation behavior was quantified as the number of animals that were in touch with two or more animals at greater than 50% of their body length.

C. elegans [5] = test: Measurement of locomotory parameters (automated worm-tracking); type: in vivo
Description: Reversal frequency and velocity were measured using an automated worm-tracking system (Pungaliya et al., PNAS 106:7708-13 (2009); Srinivasan et al., Nature 454:1115-18 (2008), which are hereby incorporated by reference in their entirety).

[6] = test system: Several of the tested nematode species; test: Retention assay; type: in vivo; details: 1 nM, 1 μM and 1 mM tested
Description: OP50 E. coli was grown on a standard 5 cm agar plate (made with standard Nematode Growth Medium). The bacterial lawn was 16 mm in diameter and was grown overnight at 20° C. before being used in trials. Two 4 mm spots (0.6 μL) were placed on opposite sides of the bacterial lawn (using a transparent template to guide spot placement), and several minutes elapsed for the liquid to settle in before placing nematodes down on the assay. Recording began immediately upon worm placement. 0.6 μL of the control was placed on one side of the lawn, and 0.6 μL of the experimental cue was placed on the other side of the lawn, changing the location of the cue throughout trials between left/right and top/bottom to avoid bias.
Nematodes were isolated by gender at the L4 stage the day before being used in trials as developed adults. Worms were evenly divided and placed at two points equidistant from the foci of the scoring region. Trials were recorded for 20 minutes, and frames were collected for analysis at 1 frame per second. Results were averaged from at least three different trials. For every nematode species in this study, a different total number of worms (using water in both scoring regions) was tested to determine the minimum number of worms necessary for consistent unbiased results over a 20 minute trial. The total number of worms used in the multiple species assays depended on that species' optimal parameters. 10 worms were used for P. redivivus males and females, 20 worms were used for C. elegans males and O. dolichuridae males, and 14 worms were used for S. glaseri males. The Automated Software was used to compare worm occupancy in each scoring region over time, and the Chemotaxis Index (Bargmann et al., Cell 74:515-27 (1993), which is hereby incorporated by reference in its entirety) was adapted to score preference or avoidance to each ascaroside.
A video camera attached to the microscope produced a digital video stream, which was then analyzed. The ratio of the time the average worm spent in each region of interest was calculated for every trial. For ease of implementation, all worms in a single experiment were assumed to be roughly the same size. Thus worm pixels were counted instead of whole worms, allowing fractions of a worm in the region of interest to be taken into account. It also eliminated the need for a shape-based worm identification algorithm, and allowed each frame to be analyzed independently. A band-pass filter was applied to each frame to eliminate the effect of uneven lighting and also accentuate the worms against the background. The worm was then identified after thresholding the filtered image. Throughout each experiment, the locations and sizes of the regions of interest were known. Through the filtering described above, it is known which pixels are occupied by worms and which ones are not. Thus, the ratio of worm-pixels to all pixels inside the region of interest can be calculated to produce the worm-occupancy ratio. This calculation was done for every frame, giving a plot output of worm-occupancy ratio vs. time for each region.

males = test: Bioassay of HPLC-purified peak; type: in vivo; details: retention time 9.7 minutes
Description: A Thermo Finnigan LCQ Deca XP Max was used with electrospray ionization in positive ion mode in the 50-1000 AMU range. The Thermo Separation spectra HPLC system consisted of a P4000 quaternary pump, an AS 3000 auto sampler, and a UV 6000 diode array detector. The solvents were water with (a) 0.1% formic acid and (b) 90% acetonitrile-10% water with 10 mM ammonium formate. The column temperature was maintained at 60° C. and a solvent flow of 1.0 ml/min. The reversed phase column (PLRP-S Polymeric reversed phase column, 250×4.6 mmid, Varian Inc.) was eluted with a solvent composition starting with 90:10 (a,b) for 2 minutes, followed by a gradient to 5:95 in 20 minutes and an additional 5 minutes at 5:95. Ultraviolet absorption was monitored at 190 and 400 nm. Solvent flow between the ultraviolet detector and mass spectroscopy electrospray interface split 9:1 with a low-volume micro needle P450 splitter valve (Upchurch Scientific, Oak Harbor, Wash.), making it possible to obtain spectra of eluted compounds and simultaneously collect 90% of the injected material for bioassay. […] This was confirmed to be ascr#1 using NMR analysis.

Panagrellus redivivus = test: Ascaroside function (Table 12); type: in vivo; details: listed = has this function
Description: as §1

S. glaseri = test: Ascaroside function (Table 12); type: in vivo; details: listed = has this function
Description: as §1

C[C@@H]1O[C@@H](OCCC(=O)O)[C@H](O)C[C@H]1O [ascr#5]
Promote Dauer Formation (C. elegans [1]): ascr#5 ([strong]) | Repel Females/Herm. (C. elegans [1]): ascr#5 | calcium transients in the ASI sensory neurons (ASI sensory neurons): does not elicit calcium transients

C[C@H](CCCC/C=C/C(=O)O)O[C@@H]1O[C@@H](C)[C@H](OC(=O)c2c[nH]c3ccccc23)C[C@H]1O [icas#3]
attraction in spot attraction assay (C. elegans [2]; 1 pmol (high concentrations), N2 hermaphrodites and him-5 males): attractive to both C. elegans sexes; also recorded: attracted both males and hermaphrodites | attraction after ablation of ASI neurons (C. elegans [2]; ASI-ablated hermaphrodites): no significant effect | attraction after ablation of ASK sensory neurons (C. elegans [2]; ASK-ablated hermaphrodites): near complete loss of attraction | attraction of daf-22 hermaphrodites (C. elegans [2]; daf-22 mutant): attracted; also recorded: as strongly as N2 worms | attraction of AIA-deficient worms (C. elegans [2]; hyperactive MEC-4 in AIA interneuron): did not show any attraction | attraction of hermaphrodites (C. elegans [2]; low concentrations, N2 hermaphrodites): strongly attractive to hermaphrodites | attraction of males (C. elegans [2]; low concentrations, males): no longer attracted | attraction of npr-1(ad609) hermaphrodites (C. elegans [2]; npr-1(ad609) mutant): strongly attracted | attraction of social wild-type hermaphrodites (C. elegans [2]; strains RC301 and CB4856): strongly attracted | response after ablation of RMG interneuron (C. elegans [2]; wild-type and ncs-1::gfp worms, RMG ablated): did not affect icas#3 response | Attract Females/Herm. (C. elegans [1]): icas#3 ([strong]) | Attract Males (C. elegans [1]): icas#3 ([strong]) | chemotaxis of hermaphrodites from all tested strains (C. elegans [3]; after 15 minutes, 10 nM of each ascr#2,3,5): attracted | chemotaxis of hermaphrodites from all tested strains (C. elegans [3]; after 30 minutes, 10 nM ascr#2,3,5): attracted | response of daf-22 hermaphrodites (C. elegans [3]; daf-22 mutant): as strongly as N2 worms | concentration as low as which resulted in strong attraction of hermaphrodites (C. elegans [3]; in the presence and absence of food): 1 pM | chemotaxis of npr-1(ad609) hermaphrodites (C. elegans [3]; npr-1(ad609) mutant): strongly attracted | chemotaxis of social wild-type hermaphrodites (C. elegans [3]; strains RC301 and CB4856): strongly attracted | G-CaMP fluorescence in the AIA neurons (AIA interneurons): significantly increased G-CaMP fluorescence | aggregation of CB4856 (C. elegans [4]; 1 nM of icas#3): not significantly different from the control | aggregation of hermaphrodites lacking the ASK neurons (C. elegans [4]; any of the tested concentrations): did not aggregate | aggregation of daf-22 hermaphrodites (C. elegans [4]; compared with N2): less aggregation than N2 worms at 1 pM icas#3 but not at 10 pM icas#3 | aggregation of solitary and social hermaphrodites (C. elegans [4]; constant background concentration): strongly increased the propensity | aggregation of npr-1(ad609) hermaphrodites (C. elegans [4]; entire tested concentration range, no drop off): increased aggregation | aggregation of him-5 males (C. elegans [4]; icas#3 plates): significantly increased | concentration window for hermaphrodite attraction and aggregation (C. elegans [4]; in vivo): femtomolar to low picomolar | concentration as low as which gave a very strong increase in aggregation (C. elegans [4]; low worm density, solitary and social hermaphrodites): 10 fM | worm velocity (C. elegans [5]; 1-10 pM icas#3): not significantly reduced | mean stopped duration (C. elegans [5]; aggregation-inducing concentrations, N2 hermaphrodites): strongly increase | reversal frequency and velocity of ASK-ablated hermaphrodites (C. elegans [5]; icas#3 plates): neither increased reversal frequency nor decreased velocity

C[C@H](CCCCC(=O)O)O[C@@H]1O[C@@H](C)[C@H](O)C[C@H]1O [ascr#1]
preference for ascaroside-conditioned areas [6]: preferred areas conditioned | Attract Males (C. elegans [1]): ascr#l | Promote Dauer Formation (C. elegans [1]): ascr#1 | activity to males in the bioassay (males): active to males | Attract Males (Panagrellus redivivus): ascr#1 | Attract Males (S. glaseri): ascr#1

Reference: patent publication US9487551B2, “Small molecule compounds that control mammal-pathogenic nematodes” (California Institute of Technology, priority 2011, dated 2016)
